molecular target: HSD17B13 (Homo sapiens (Human), UniProt Q7Z5P4); assay: HSD17B13 enzymatic inhibition assay (150 nM or 50 nM HSD17B13); type: biochemical; settings: 50 nM HSD17B13; read-out: Inhibition of 50 nM of HSD17B13 IC50
Sequence (Q7Z5P4 other isoform, or with tags, fused parts or gaps): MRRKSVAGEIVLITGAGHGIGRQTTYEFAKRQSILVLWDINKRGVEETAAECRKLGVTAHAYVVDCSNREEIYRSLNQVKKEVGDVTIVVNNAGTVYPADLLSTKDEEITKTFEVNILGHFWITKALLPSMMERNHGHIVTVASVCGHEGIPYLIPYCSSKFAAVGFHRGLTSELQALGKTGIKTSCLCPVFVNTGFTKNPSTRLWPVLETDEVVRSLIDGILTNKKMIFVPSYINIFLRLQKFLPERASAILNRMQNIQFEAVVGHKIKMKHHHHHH

SMILES | IC50 [nM]
O=C(NC1c2ccccc2C=Cc2ccccc21)c1ccc(C(F)(F)F)[nH]c1=O [Compound 5A, N-(5H-dibenzo[a,d][7]annulen-5-yl)-2-oxo-6-(trifluoromethyl)-1,2-dihydropyridine-3-carboxamide] | 1520
Nc1ccc(C(NC(=O)c2ccc(C(F)(F)F)[nH]c2=O)c2ccccc2)cc1 (stereo not shown) [Compound 6A, N-((4-aminophenyl)(phenyl)methyl)-2-oxo-6-(trifluoromethyl)-1,2-dihydropyridine-3-carboxamide] | 5150
COc1ccccc1C(NC(=O)c1ccc(C(F)(F)F)[nH]c1=O)c1ccccc1 (stereo not shown) [Compound 8, N-((2-methoxyphenyl)(phenyl)methyl)-2-oxo-6-(trifluoromethyl)-1,2-dihydropyridine-3-carboxamide] | 1610
O=C(NC1c2ccc(OC(F)(F)F)cc2-c2cc(OC(F)(F)F)ccc21)c1ccc(C(F)(F)F)[nH]c1=O [Compound 8A, N-(3,6-bis(trifluoromethoxy)-9H-fluoren-9-yl)-2-oxo-6-(trifluoromethyl)-1,2-dihydropyridine-3-carboxamide] | 6310
O=C(NC(c1ccccc1)c1ccc(N2CCCCC2)cc1)c1ccc(C(F)(F)F)[nH]c1=O (stereo not shown) [Compound 9A, 2-oxo-N-(phenyl(4-(piperidin-1-yl)phenyl)methyl)-6-(trifluoromethyl)-1,2-dihydropyridine-3-carboxamide] | 1200
O=C(NC(c1ccc(Br)cc1)c1ccc(Br)cc1)c1ccc(C(F)(F)F)[nH]c1=O [Compound 10, N-(bis(4-bromophenyl)methyl)-2-oxo-6-(trifluoromethyl)-1,2-dihydropyridine-3-carboxamide] | 670
O=C(NC1c2ccccc2Sc2ccccc21)c1ccc(C(F)(F)F)[nH]c1=O [Compound 10A, 2-oxo-N-(9H-thioxanthen-9-yl)-6-(trifluoromethyl)-1,2-dihydropyridine-3-carboxamide] | 1460
O=C(NC(c1ccc(OC(F)(F)F)cc1)c1ccc(OC(F)(F)F)cc1)c1ccc(C(F)(F)F)[nH]c1=O [Compound 11, N-(bis(4-(trifluoromethoxy)phenyl)methyl)-2-oxo-6-(trifluoromethyl)-1,2-dihydropyridine-3-carboxamide] | 1090
O=C(NC1c2ccccc2S(=O)(=O)c2ccccc21)c1ccc(C(F)(F)F)[nH]c1=O [Compound 11A, N-(10,10-dioxido-9H-thioxanthen-9-yl)-2-oxo-6-(trifluoromethyl)-1,2-dihydropyridine-3-carboxamide] | 1190
Cc1ccc(C(NC(=O)c2cnc(C(F)(F)F)[nH]c2=O)c2ccc(C)cc2)cc1 [Compound 13A, N-(di-p-tolylmethyl)-6-oxo-2-(trifluoromethyl)-1,6-dihydropyrimidine-5-carboxamide] | 1310
O=C(NC1c2ccc(Cl)cc2-c2cc(Cl)ccc21)c1ccc(C(F)(F)F)[nH]c1=O [Compound 14A, N-(3,6-dichloro-9H-fluoren-9-yl)-2-oxo-6-(trifluoromethyl)-1,2-dihydropyridine-3-carboxamide] | 4280
O=C(NC(c1ccccc1)c1ccc(O)c(F)c1)c1ccc(C(F)(F)F)[nH]c1=O (stereo not shown) [Compound 16A, N-((3-fluoro-4-hydroxyphenyl)(phenyl)methyl)-2-oxo-6-(trifluoromethyl)-1,2-dihydropyridine-3-carboxamide] | 3640
O=C(NC(c1ccccc1)c1ccccc1C(F)(F)F)c1ccc(C(F)(F)F)[nH]c1=O (stereo not shown) [Compound 17A, 2-oxo-N-(phenyl(2-(trifluoromethyl)phenyl)methyl)-6-(trifluoromethyl)-1,2-dihydropyridine-3-carboxamide] | 3100
Cc1ccc(C(NC(=O)c2cnc(C(F)(F)F)[nH]c2=O)c2ccccc2)cc1C (stereo not shown) [Compound 18A, N-((3,4-dimethylphenyl)(phenyl)methyl)-6-oxo-2-(trifluoromethyl)-1,6-dihydropyrimidine-5-carboxamide] | 2620
CC(NC(=O)c1ccc(C(F)(F)F)[nH]c1=O)(c1ccc(O)cc1)c1ccc(O)cc1 [Compound 21A, N-(1,1-bis(4-hydroxyphenyl)ethyl)-2-oxo-6-(trifluoromethyl)-1,2-dihydropyridine-3-carboxamide] | 1850
CCC(NC(=O)c1ccc(C(F)(F)F)[nH]c1=O)c1ccc(Cl)cc1 (stereo not shown) [Compound 22A, N-(1-(4-chlorophenyl)propyl)-2-oxo-6-(trifluoromethyl)-1,2-dihydropyridine-3-carboxamide] | 2960
O=C(NC(c1ccc(O)cc1)c1ccc(O)cc1)c1ccc(C(F)(F)F)[nH]c1=O [Compound 23, N-(bis(4-hydroxyphenyl)methyl)-2-oxo-6-(trifluoromethyl)-1,2-dihydropyridine-3-carboxamide] | 4240

SMILES | IC50 [nM]
O=C(NC(c1ccc(CC(F)(F)F)cc1)c1ccc(CC(F)(F)F)cc1)c1ccc(C(F)(F)F)[nH]c1=O [Compound 23A, N-(bis(4-(2,2,2-trifluoroethyl)phenyl)methyl)-2-oxo-6-(trifluoromethyl)-1,2-dihydropyridine-3-carboxamide] | 990
C/C=C/c1ccc(C(NC(=O)c2ccc(C(F)(F)F)[nH]c2=O)c2ccccc2)cc1 (stereo not shown) [Compound 29, (E)-2-oxo-N-(phenyl(4-(prop-1-en-1-yl)phenyl)methyl)-6-(trifluoromethyl)-1,2-dihydropyridine-3-carboxamide] | 470
C=C(C)c1ccc(C(NC(=O)c2ccc(C(F)(F)F)[nH]c2=O)c2ccccc2)cc1 (stereo not shown) [Compound 30, 2-oxo-N-(phenyl(4-(prop-1-en-2-yl)phenyl)methyl)-6-(trifluoromethyl)-1,2-dihydropyridine-3-carboxamide] | 750
O=C(NC(c1ccccc1)c1ccc(C2=CCCC2)cc1)c1ccc(C(F)(F)F)[nH]c1=O (stereo not shown) [Compound 31, N-((4-(cyclopent-1-en-1-yl)phenyl)(phenyl)methyl)-2-oxo-6-(trifluoromethyl)-1,2-dihydropyridine-3-carboxamide] | 460
O=C(NC(c1ccccc1)c1ccc(C2=CCCCC2)cc1)c1ccc(C(F)(F)F)[nH]c1=O (stereo not shown) [Compound 32, 2-oxo-N-(phenyl(2′,3′,4,5′-tetrahydro-[1,1′-biphenyl]-4-yl)methyl)-6-(trifluoromethyl)-1,2-dihydropyridine-3-carboxamide] | 400
O=C(NC(c1ccccc1)c1ccc(C2=CCOCC2)cc1)c1ccc(C(F)(F)F)[nH]c1=O (stereo not shown) [Compound 33, N-((4-(3,6-dihydro-2H-pyran-4-yl)phenyl)(phenyl)methyl)-2-oxo-6-(trifluoromethyl)-1,2-dihydropyridine-3-carboxamide] | 820
O=C(NC(c1ccc(F)cc1)c1ccc(F)cc1)c1ccc(C(F)(F)F)[nH]c1=O [Compound 34, N-(bis(4-fluorophenyl)methyl)-2-oxo-6-(trifluoromethyl)-1,2-dihydropyridine-3-carboxamide] | 1630
O=C(NC(c1ccccc1)c1ccc(C2CCCC2)cc1)c1ccc(C(F)(F)F)[nH]c1=O (stereo not shown) [Compound 38, N-((4-cyclopentylphenyl)(phenyl)methyl)-2-oxo-6-(trifluoromethyl)-1,2-dihydropyridine-3-carboxamide] | 450
O=C(NC(c1ccccc1)c1ccc(C2CCCCC2)cc1)c1ccc(C(F)(F)F)[nH]c1=O (stereo not shown) [Compound 39, N-((4-cyclohexylphenyl)(phenyl)methyl)-2-oxo-6-(trifluoromethyl)-1,2-dihydropyridine-3-carboxamide] | 490
O=C(NC1c2ccccc2CCc2ccccc21)c1ccc(C(F)(F)F)[nH]c1=O [Compound 40, N-(10,11-dihydro-5H-dibenzo[a,d][7]annulen-5-yl)-2-oxo-6-(trifluoromethyl)-1,2-dihydropyridine-3-carboxamide] | 1650
CN(C)c1ccc(C(NC(=O)c2ccc(C(F)(F)F)[nH]c2=O)c2ccccc2)cc1 (stereo not shown) [Compound 41, N-((4-(dimethylamino)phenyl) (phenyl)methyl)-2-oxo-6-(trifluoromethyl)-1,2-dihydropyridine-3-carboxamide] | 1290
CCc1ccc2c(c1)-c1cc(CC)ccc1C2NC(=O)c1ccc(C(F)(F)F)[nH]c1=O [Compound 42, N-(3,6-diethyl-9H-fluoren-9-yl)-2-oxo-6-(trifluoromethyl)-1,2-dihydropyridine-3-carboxamide] | 1300
O=C(NC1c2ccc(O)cc2-c2cc(O)ccc21)c1ccc(C(F)(F)F)[nH]c1=O [Compound 45, N-(3,6-dihydroxy-9H-fluoren-9-yl)-2-oxo-6-(trifluoromethyl)-1,2-dihydropyridine-3-carboxamide] | 1750
O=C(NC1c2ccc(OC(F)F)cc2-c2cc(OC(F)F)ccc21)c1ccc(C(F)(F)F)[nH]c1=O [Compound 47, N-(3,6-bis(difluoromethoxy)-9H-fluoren-9-yl)-2-oxo-6-(trifluoromethyl)-1,2-dihydropyridine-3-carboxamide] | 1830
O=C(NC(c1ccccc1)c1ccc(N2CCOCC2)cc1)c1ccc(C(F)(F)F)[nH]c1=O (stereo not shown) [Compound 48, N-((4-morpholinophenyl)(phenyl)methyl)-2-oxo-6-(trifluoromethyl)-1,2-dihydropyridine-3-carboxamide] | 2490
N#Cc1ccc(C(NC(=O)c2ccc(C(F)(F)F)[nH]c2=O)c2ccc(C#N)cc2)cc1 [Compound 49, N-(bis(4-cyanophenyl)methyl)-2-oxo-6-(trifluoromethyl)-1,2-dihydropyridine-3-carboxamide] | 980

same assay, conditions: 150 nM HSD17B13; read-out: Inhibition of 150 nM of HSD17B13 IC50

SMILES | IC50 [nM]
COc1cccc(C(NC(=O)c2ccc(C(F)(F)F)[nH]c2=O)c2ccccc2)c1 (stereo not shown) [Compound 4, N-((3-methoxyphenyl)(phenyl)methyl)-2-oxo-6-(trifluoromethyl)-1,2-dihydropyridine-3-carboxamide] | 4700
O=C(NC(c1ccccc1)c1cccc(Cl)c1)c1ccc(C(F)(F)F)[nH]c1=O (stereo not shown) [Compound 6, N-((3-chlorophenyl)(phenyl)methyl)-2-oxo-6-(trifluoromethyl)-1,2-dihydropyridine-3-carboxamide] | 4520
COc1ccccc1C(NC(=O)c1ccc(C(F)(F)F)[nH]c1=O)c1ccccc1 (stereo not shown) [Compound 8, N-((2-methoxyphenyl)(phenyl)methyl)-2-oxo-6-(trifluoromethyl)-1,2-dihydropyridine-3-carboxamide] | 3230
Cc1cccc(C(NC(=O)c2ccc(C(F)(F)F)[nH]c2=O)c2ccccc2)c1 (stereo not shown) [Compound 20, N-(phenyl(m-tolyl)methyl)-2-oxo-6-(trifluoromethyl)-1,2-dihydropyridine-3-carboxamide] | 2110

Source: US11957687B2 (REGENERON PHARMACEUTICALS, INC., priority 2019, dated 2024)
